Here are results for 24 molecules from patent publication US20220119411A1, “IMMUNOMODULATORS, COMPOSITIONS AND METHODS THEREOF” (BETTA PHARMACEUTICALS CO., LTD, priority 2018, published 2022).

This test deals with T1, PD-1/PD-L1 protein/protein interaction (Homo sapiens, UniProt Q9NZQ7).
T1 construct: Recombinant human PD-L1 protein (19-238) with a His-tag at the C-terminus; purchased AcroBiosystems PD1-H5229 (PD-L1); PD1-H5257 (PD-1)
The experiment in a line: PD-1/PD-L1 homogenous time-resolved fluorescence (HTRF) binding assay. The following applies: recombinant human PD-L1 (19-238)-His 10 nM, human PD-1 (25-167)-Fc 3 nM, 25° C., PBS pH 7.4. How it is done: Resolved Fluorescence (HTRF) Binding Assay
The assays were conducted in a standard black 384-well polystyrene plate with a final volume of 20 μL. Inhibitors were first serially diluted in DMSO and then added to the plate wells before the addition of other reaction components. The final concentration of DMSO in the assay was 1%. The assays were carried out at 25° C. in the PBS buffer (pH 7.4) with 0.05% Tween-20 and 0.1% BSA. Recombinant human PD-L1 protein (19-238) with a His-tag at the C-terminus was purchased from AcroBiosy stems (PD1-H5229). Recombinant human PD-1 protein (25-167) with Fc tag at the C-terminus was also purchased from AcroBiosystems (PD1-H5257). PD-L1 and PD-1 proteins were diluted in the assay buffer and 10 μL was added to the plate well. Plates were centrifuged and proteins were preincubated with inhibitors for 40 min. The incubation was followed by the addition of 10 μL of HTRF detection buffer supplemented with Europium cryptate-labeled anti-human IgG (PerkinElmer-AD0212) specific for Fc and anti-His antibody conjugated to SureLight®—Allophycocyanin (APC, PerkinElmer-AD0059H). After centrifugation, the plate was incubated at 25° C. for 60 min. Before reading on a PHERAstar FS plate reader (665 nm/620 nm ratio). Final concentrations in the assay were—3 nM PD1, 10 nM PD-L1, 1 nM europium anti-human IgG and 20 nM anti-His-Allophycocyanin. IC50 determination was performed by fitting the curve of percent control activity versus the log of the inhibitor concentration using the GraphPad Prism 5.0 software.
Data obtained for the Example compounds using the PD-1/PD-L1 homogenous time-resolved fluorescence (HTRF) binding assay described in Example A is provided in Table 2.
For orientation: In TR-FRET formats the signal depends on donor and acceptor labels being close together.

T1 sequence (Q9NZQ7 19-238): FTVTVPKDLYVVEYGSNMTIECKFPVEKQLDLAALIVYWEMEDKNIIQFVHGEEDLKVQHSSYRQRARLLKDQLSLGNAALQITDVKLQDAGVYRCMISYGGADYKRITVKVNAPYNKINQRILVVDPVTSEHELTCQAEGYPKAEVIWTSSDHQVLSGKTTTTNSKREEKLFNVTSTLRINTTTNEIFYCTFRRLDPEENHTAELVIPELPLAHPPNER

As a reminder, the IC50 is the concentration that gives 50% inhibition. Consider `Cc1c(NC(=O)c2ccccn2)cccc1-c1cccc2c1CCN2C(=O)c1nc2c(s1)CN(CC(=O)O)CC2` [Example 27, 2-(2-(4-(2-methyl-3-(picolinamido)phenyl)indoline-1-carbonyl)-6,7-dihydrothiazolo[5,4-c]pyridin-5(4H)-yl)acetic acid], for which the half-inhibitory concentration (IC50) was at most 25 nM.

As for `O=C(O)CN1CCc2nc(C(=O)N3CCCc4c(-c5ccccc5)cccc43)sc2C1` [Example 28, 2-(2-(5-phenyl-1,2,3,4-tetrahydroquinoline-1-carbonyl)-6,7-dihydrothiazolo[5,4-c]pyridin-5(4H)-yl)acetic acid], the IC50 is 25 to 100 nM. In the case of `Cc1c(Nc2nccc3nccnc23)cccc1-c1cccc2c1CCN2C(=O)c1nc2c(s1)CN(CC(=O)O)CC2` [Example 29, 2-(2-(4-(2-methyl-3-(pyrido[3,4-b]pyrazin-5-ylamino)phenyl)indoline-1-carbonyl)-6,7-dihydrothiazolo[5,4-c]pyridin-5(4H)-yl)acetic acid], the IC50 was 25 to 100 nM. The value for `Cn1ncc2c(-c3cccc4c3CCN4C(=O)c3nc4c(s3)CN(CC(=O)O)CC4)cccc21` [Example 30, 2-(2-(4-(1-methyl-1H-indazol-4-yl)indoline-1-carbonyl)-6,7-dihydrothiazolo[5,4-c]pyridin-5(4H)-yl)acetic acid] was at most 25 nM. As for `Cc1c(NC(=O)c2nc3c(n2C)CNCC3)cccc1-c1cccc2c1CCN2C(=O)c1nc2c(s1)CN(CC(=O)O)CC2` [Example 31, 2-(2-(4-(2-methyl-3-(3-methyl-4,5,6,7-tetrahydro-3H-imidazo[4,5-c]pyridine-2-carboxamido)phenyl)indoline-1-carbonyl)-6,7-dihydrothiazolo[5,4-c]pyridin-5(4H)-yl)acetic acid], the figure is at most 25 nM. The value for `Cc1c(NC(=O)c2nc3c(n2C)CCNC3)cccc1-c1cccc2c1CCN2C(=O)c1nc2c(s1)CN(CC(=O)O)CC2` [Example 32, 2-(2-(4-(2-methyl-3-(1-methyl-4,5,6,7-tetrahydro-1H-imidazo[4,5-c]pyridine-2-carboxamido)phenyl)indoline-1-carbonyl)-6,7-dihydrothiazolo[5,4-c]pyridin-5(4H)-yl)acetic acid] was at most 25 nM; that for `Cc1c(NC(=O)CCN2CCC(O)C2)cccc1-c1cccc2c1CCN2C(=O)c1nc2c(n1C)CN(CC(=O)O)CC2` (stereo not drawn) [Example 33, 2-(2-(4-(3-(3-(3-hydroxypyrrolidin-1-yl)propanamido)-2-methylphenyl)indoline-1-carbonyl)-3-methyl-3,4,6,7-tetrahydro-5H-imidazo[4,5-c]pyridin-5-yl)acetic acid] was at most 25 nM; that for `Cc1c(NC(=O)CCN2CCC(O)C2)cccc1-c1cccc2c1CCN2C(=O)c1nc2c(n1C)CNCC2` (stereo not drawn) [Example 34, 3-(3-hydroxypyrrolidin-1-yl)-N-(2-methyl-3-(1-(3-methyl-4,5,6,7-tetrahydro-3H-imidazo[4,5-c]pyridine-2-carbonyl)indolin-4-yl)phenyl)propanamide] was at most 25 nM. Regarding `Cn1c(C(=O)N2CCc3c(-c4cccc5c4CCN5C(=O)CCN4CCC(O)C4)cccc32)nc2c1CN(CC(=O)O)CC2` (stereo not drawn) [Example 35, 2-(2-(1′-(3-(3-hydroxypyrrolidin-1-yl)propanoyl)-[4,4′-biindoline]-1-carbonyl)-3-methyl-3,4,6,7-tetrahydro-5H-imidazo[4,5-c]pyridin-5-yl)acetic acid], the IC50 was at most 25 nM. The value for `Cc1c(OCCCN2CCC(O)C2)cccc1-c1cccc2c1CCN2C(=O)c1nc2c(n1C)CN(CC(=O)O)CC2` (stereo not drawn) [Example 36, 2-(2-(4-(3-(3-(3-hydroxypyrrolidin-1-yl)propoxy)-2-methylphenyl)indoline-1-carbonyl)-3-methyl-3,4,6,7-tetrahydro-5H-imidazo[4,5-c]pyridin-5-yl)acetic acid] was at most 25 nM; that for `Cc1c(OCCCN2CCC(O)C2)cccc1-c1cccc2c1CCN2C(=O)c1nc2c(n1C)CCN(CC(=O)O)C2` (stereo not drawn) [Example 37, 2-(2-(4-(3-(3-(3-hydroxypyrrolidin-1-yl)propoxy)-2-methylphenyl)indoline-1-carbonyl)-1-methyl-1,4,6,7-tetrahydro-5H-imidazo[4,5-c]pyridin-5-yl)acetic acid] was at most 25 nM. As for `Cc1c(OCCCN2CCC(O)C2)cccc1-c1cccc2c1CCN2C(=O)c1nc2c(n1C)CCNC2` (stereo not drawn) [Example 38, (4-(3-(3-(3-hydroxypyrrolidin-1-yl)propoxy)-2-methylphenyl)indolin-1-yl)(1-methyl-4,5,6,7-tetrahydro-1H-imidazo[4,5-c]pyridin-2-yl)methanone], the IC50 was at most 25 nM.

For the molecule `Cc1c(OCCCN2CCC(O)C2)cccc1-c1cccc2c1CCN2C(=O)c1nc2c(n1C)CNCC2` (stereo not drawn) [Example 39, (4-(3-(3-(3-hydroxypyrrolidin-1-yl)propoxy)-2-methylphenyl)indolin-1-yl)(3-methyl-4,5,6,7-tetrahydro-3H-imidazo[4,5-c]pyridin-2-yl)methanone], the IC50 is at most 25 nM. As for `Cn1c(C(=O)N2CCc3c(-c4cccc5c4CCN5CCCN4CCC(O)C4)cccc32)nc2c1CCNC2` (stereo not drawn) [Example 40, (1′-(3-(3-hydroxypyrrolidin-1-yl)propyl)-[4,4′-biindolin]-1-yl)(1-methyl-4,5,6,7-tetrahydro-1H-imidazo[4,5-c]pyridin-2-yl)methanone], the figure is 25 to 100 nM. As for `Cc1c(OCCCN2CCC(O)C2)cccc1-c1cccc2c1CCN2C(=O)c1cn2c(n1)CNCC2` (stereo not drawn) [Example 41, (4-(3-(3-(3-hydroxypyrrolidin-1-yl)propoxy)-2-methylphenyl)indolin-1-yl)(5,6,7,8-tetrahydroimidazo[1,2-a]pyrazin-2-yl)methanone], the figure is at most 25 nM; as for `O=C(CCN1CCC(O)C1)N1CCc2c(-c3cccc4c3CCN4C(=O)c3cn4c(n3)CNCC4)cccc21` (stereo not drawn) [Example 42, 3-(3-hydroxypyrrolidin-1-yl)-1-(1′-(5,6,7,8-tetrahydroimidazo[1,2-a]pyrazine-2-carbonyl)-[4,4′-biindolin]-1-yl)propan-1-one], at most 25 nM. For `Cc1c(OCCCN2CCC(O)C2)cccc1-c1cccc2c1CCN2C(=O)c1nnc(CN)s1` (stereo not drawn) [Example 43, (5-(aminomethyl)-1,3,4-thiadiazol-2-yl)(4-(3-(3-(3-hydroxypyrrolidin-1-yl)propoxy)-2-methylphenyl)indolin-1-yl)methanone], the IC50 is at most 25 nM. On to `Cc1c(OCCCN2CCC(O)C2)cccc1-c1cccc2c1CCN2C(=O)c1nnc([C@@H]2CCCN2)s1` (stereo partly drawn) [Example 44, (4-(3-(3-(3-hydroxypyrrolidin-1-yl)propoxy)-2-methylphenyl)indolin-1-yl)(5-((S)-pyrrolidin-2-yl)-1,3,4-thiadiazol-2-yl)methanone], for which the IC50 was at most 25 nM. The value for `Cc1c(OCCCN2CCCC2)cccc1-c1cccc2c1CCN2C(=O)c1ncc(CNCCO)s1` [Example 45, (5-(((2-hydroxyethyl)amino)methyl)thiazol-2-yl)(4-(2-methyl-3-(3-(pyrrolidin-1-yl)propoxy)phenyl)indolin-1-yl)methanone] was at most 25 nM; that for `Cc1nc(C(=O)N2CCc3c(-c4cccc5c4CCN5C(=O)CCN4CCC(O)C4)cccc32)sc1CNCCO` (stereo not drawn) [Example 46, 1-(1′-(5-(((2-hydroxyethyl)amino)methyl)-4-methylthiazole-2-carbonyl)-[4,4′-biindolin]-1-yl)-3-(3-hydroxypyrrolidin-1-yl)propan-1-one] was at most 25 nM; that for `O=C(c1cn2c(n1)CNCC2)N1CCc2c(-c3cccc4c3cnn4CCCN3CCOCC3)cccc21` [Example 47, (4-(1-(3-morpholinopropyl)-1H-indazol-4-yl)indolin-1-yl)(5,6,7,8-tetrahydroimidazo[1,2-a]pyrazin-2-yl)methanone] was 25 to 100 nM. As for `Cn1ncc2c(-c3cccc4c3CCN4C(=O)c3cn4c(n3)CNCC4)cccc21` [Example 48, (4-(1-methyl-1H-indazol-4-yl)indolin-1-yl)(5,6,7,8-tetrahydroimidazo[1,2-a]pyrazin-2-yl)methanone], the figure is 100 to 200 nM; as for `O=C(O)CN1CCc2nc(C(=O)N3CCc4c(-c5ccc(NC(=O)CCN6CCC(O)C6)cc5)cccc43)sc2C1` (stereo not drawn) [Example 49, 2-(2-(4-(4-(3-(3-hydroxypyrrolidin-1-yl)propanamido)phenyl)indoline-1-carbonyl)-6,7-dihydrothiazolo[5,4-c]pyridin-5(4H)-yl)acetic acid], at most 25 nM; as for `O=C(O)CN1CCc2nc(C(=O)N3CCc4c(-c5ccc(OCCCN6CCC(O)C6)cc5)cccc43)sc2C1` (stereo not drawn) [Example 50, 2-(2-(4-(4-(3-(3-hydroxypyrrolidin-1-yl)propoxy)phenyl)indoline-1-carbonyl)-6,7-dihydrothiazolo[5,4-c]pyridin-5(4H)-yl)acetic acid], at most 25 nM.
